Data from patent publication US7368578B2, “Five-membered heterocyclic compounds” (Takeda Pharmaceutical Company Limited, priority 2002, dated 2008).

| Compound | melting point |
| --- | --- |
| Cc1oc(-c2ccccc2)nc1COc1ccc(OCc2oc(-c3ccccc3)nc2CO)cc1 [Example 93, [5-({4-[(5-methyl-2-phenyl-1,3-oxazol-4-yl)methoxy]phenoxy}methyl)-2-phenyl-1,3-oxazol-4-yl]methanol] | 143 to 144 °C |
| COc1cc(COc2nn(-c3ccccc3)cc2/C=C/C(N)=O)ccc1OCc1nc(-c2ccco2)oc1C [Example 94, (2E)-3-{3-[(4-{[2-(2-furyl)-5-methyl-4-oxazolyl]methoxy}-3-methoxybenzyl)oxy]-1-phenyl-1H-pyrazol-4-yl}-2-propenamide] | 187 to 188 °C |
| COc1cc(COc2nn(-c3ccccc3)cc2/C=C/C#N)ccc1OCc1nc(-c2ccco2)oc1C [Example 95, (2E)-3-{3-[(4-{[2-(2-furyl)-5-methyl-1,3-oxazol-4-yl]methoxy}-3-methoxybenzyl)oxy]-1-phenyl-1H-pyrazol-4-yl}-2-propenenitrile] | 177 to 178 °C |
| COc1cc(COc2nn(-c3ccccc3)cc2C=C(C#N)C#N)ccc1OCc1nc(-c2ccco2)oc1C [Example 96, ({3-[(4-{[2-(2-furyl)-5-methyl-1,3-oxazol-4-yl]methoxy}-3-methoxybenzyl)oxy]-1-phenyl-1H-pyrazol-4-yl)methylene) malononitrile] | 190 to 191 °C |
| COc1cc(COc2nn(-c3ccccc3)cc2/C=C/C2=NCCO2)ccc1OCc1nc(-c2ccco2)oc1C [Example 99, 4-({4-[({4-[(E)-2-(4,5-dihydro-1,3-oxazol-2-yl)ethenyl]-1-phenyl-1H-pyrazol-3-yl}oxy)methyl]-2-methoxyphenoxy}methyl)-2-(2-furyl)-5-methyl-1,3-oxazole] | 162 to 163 °C |
| COCc1cn(-c2ccccc2)nc1OCc1ccc(OCc2nc(-c3ccco3)oc2C)c(OC)c1 [Example 101, 2-(2-furyl)-4-{[2-methoxy-4-({[4-(methoxymethyl)-1-phenyl-1H-pyrazol-3-yl]oxy}methyl)phenoxy]methyl}-5-methyl-1,3-oxazole] | 121 to 122 °C |
| CNCc1cn(-c2ccccc2)nc1OCc1ccc(OCc2nc(-c3ccco3)oc2C)c(OC)c1 [Example 102, N-({3-[(4-{[2-(2-furyl)-5-methyl-1,3-oxazol-4-yl]methoxy}-3-methoxybenzyl)oxy]-1-phenyl-1H-pyrazol-4-yl}methyl)-N-methylamine] | 103 to 104 °C |
| COc1cc(COc2nn(-c3ccccc3)cc2CCO)ccc1OCc1nc(-c2ccco2)oc1C [Example 104, 2-{3-[(4-{[2-(2-furyl)-5-methyl-1,3-oxazol-4-yl]methoxy}-3-methoxybenzyl)oxy]-1-phenyl-1H-pyrazol-4-yl}ethanol] | 123 to 124 °C |
| COc1cc(COc2nn(-c3ccccc3)cc2/C=C2\SC(=O)N(C)C2=O)ccc1OCc1nc(-c2ccco2)oc1C [Example 105, (5Z)-5-({3-[(4-{[2-(2-furyl)-5-methyl-1,3-oxazol-4-yl]methoxy}-3-methoxybenzyl)oxy]-1-phenyl-1H-pyrazol-4-yl}methylene)-3-methyl-1,3-thiazolidine-2,4-dione] | 215 to 216 °C |
| COc1cc(COc2nn(-c3ccccc3)cc2CC2SC(=O)N(C)C2=O)ccc1OCc1nc(-c2ccco2)oc1C (stereo not shown) [Example 106, 5-({3-[(4-{[2-(2-furyl)-5-methyl-1,3-oxazol-4-yl]methoxy}-3-methoxybenzyl)oxy]-1-phenyl-1H-pyrazol-4-yl}methyl)-3-methyl-1,3-thiazolidine-2,4-dione] | 111 to 112 °C |
| COc1cc(COc2nn(-c3ccccc3)cc2/C=C/CO)ccc1OCc1nc(-c2ccco2)oc1C [Example 108, (2E)-3-{3-[(4-([2-(2-furyl)-5-methyl-1,3-oxazol-4-yl]methoxy}-3-methoxybenzyl)oxy]-1-phenyl-1H-pyrazol-4-yl}-2-propen-1-ol] | 120 to 121 °C |
| COc1cc(COc2nn(-c3ccccc3)cc2/C=C/c2cscn2)ccc1OCc1nc(-c2ccco2)oc1C [Example 111 (E form), 2-(2-furyl)-4-({2-methoxy-4-[({1-phenyl-4-[(E)-2-(1,3-thiazol-4-yl)ethenyl]-1H-pyrazol-3-yl}oxy)methyl]phenoxy)methyl)-5-methyl-1,3-oxazole] | 136 to 137 °C |
| COc1cc(COc2nn(-c3ccccc3)cc2/C=C/c2ccccn2)ccc1OCc1nc(-c2ccco2)oc1C [Example 113, 2-((E)-2-{3-[(4-{[2-(2-furyl)-5-methyl-1,3-oxazol-4-yl]methoxy}-3-methoxybenzyl)oxy]-1-phenyl-1H-pyrazol-4-yl}ethenyl)pyridine] | 135 to 136 °C |
| CCCc1nnc(/C=C/c2cn(-c3ccccc3)nc2OCc2ccc(OCc3nc(-c4ccco4)oc3C)c(OC)c2)o1 [Example 115, 2-((E)-2-{3-[(4-{[2-(2-furyl)-5-methyl-1,3-oxazol-4-yl]methoxy}-3-methoxybenzyl)oxy]-1-phenyl-1H-pyrazol-4-yl}ethenyl)-5-propyl-1,3,4-oxadiazole] | 172 to 173 °C |
| COc1cc(COc2nn(-c3ccccc3)cc2/C=C/c2nnco2)ccc1OCc1nc(-c2ccco2)oc1C [Example 118, 2-((E)-2-{3-[(4-{[2-(2-furyl)-5-methyl-1,3-oxazol-4-yl]methoxy}-3-methoxybenzyl)oxy]-1-phenyl-1H-pyrazol-4-yl}ethenyl)-1,3,4-oxadiazole] | 162 to 163 °C |
| COc1cc(COc2nn(-c3ccccc3)cc2CCc2cscn2)ccc1OCc1nc(-c2ccco2)oc1C [Example 119, 2-(2-furyl)-4-({2-methoxy-4-[({1-phenyl-4-[2-(1,3-thiazol-4-yl)ethyl]-1H-pyrazol-3-yl}oxy)methyl]phenoxy}methyl)-5-methyl-1,3-oxazole] | 127 to 128 °C |
| COc1cc(COc2nn(-c3ccccc3)cc2CC2=NCCO2)ccc1OCc1nc(-c2ccco2)oc1C [Example 121, 4-{[4-({[4-(4,5-dihydro-1,3-oxazol-2-ylmethyl)-1-phenyl-1H-pyrazol-3-yl]oxy}methyl)-2-methoxyphenoxy]methyl}-2-(2-furyl)-5-methyl-1,3-oxazole] | 95 to 96 °C |
| COc1cc(COc2nn(-c3ccccc3)cc2Cn2cncn2)ccc1OCc1nc(-c2ccco2)oc1C [Example 122, 1-({3-[(4-{[2-(2-furyl)-5-methyl-1,3-oxazol-4-yl]methoxy}-3-methoxybenzyl)oxy]-1-phenyl-1H-pyrazol-4-yl}methyl)-1H-1,2,4-triazole] | 149 to 150 °C |
| COc1cc(COc2nn(-c3ccccc3)cc2/C=C/c2nnc(C)o2)ccc1OCc1nc(-c2ccco2)oc1C [Example 125, 2-((E)-2-{3-[(4-{[2-(2-furyl)-5-methyl-1,3-oxazol-4-yl]methoxy}-3-methoxybenzyl)oxy]-1-phenyl-1H-pyrazol-4-yl}ethenyl)-5-methyl-1,3,4-oxadiazole] | 186 to 187 °C |

Other lines, results leading:

| melting point | Compound |
| --- | --- |
| 180 to 181 °C | COc1cc(COc2nn(-c3ccccc3)cc2/C=C/C(=O)N2CCOCC2)ccc1OCc1nc(-c2ccco2)oc1C [Example 98, 4-((2E)-3-{3-[(4-{[2-(2-furyl)-5-methyl-1,3-oxazol-4-yl]methoxy}-3-methoxybenzyl)oxy]-1-phenyl-1H-pyrazol-4-yl}-2-propenoyl)morpholine] |
| 153 to 154 °C | COc1cc(COc2nn(-c3ccccc3)cc2-c2cnco2)ccc1OCc1nc(-c2ccco2)oc1C [Example 107, 2-(2-furyl)-4-{[2-methoxy-4-({[4-(1,3-oxazol-5-yl)-1-phenyl-1H-pyrazol-3-yl]oxy}methyl)phenoxy]methyl}-5-methyl-1,3-oxazole] |
| 134 to 135 °C | COc1cc(COc2nn(-c3ccccc3)cc2/C=C/C=O)ccc1OCc1nc(-c2ccco2)oc1C [Example 109, (2E)-3-{3-[(4-{[2-(2-furyl)-5-methyl-1,3-oxazol-4-yl]methoxy}-3-methoxybenzyl)oxy]-1-phenyl-1H-pyrazol-4-yl}-2-propenaldehyde] |
| 115 to 116 °C | C=CC(c1cn(-c2ccccc2)nc1OCc1ccc(OCc2nc(-c3ccco3)oc2C)c(OC)c1)n1cncn1 (stereo not shown) [Example 110, 1-(1-{3-[(4-{[2-(2-furyl)-5-methyl-1,3-oxazol-4-yl]methoxy}-3-methoxybenzyl)oxy]-1-phenyl-1H-pyrazol-4-yl}-2-propenyl)-1H-1,2,4-triazole] |
| 137 to 138 °C | COc1cc(COc2nn(-c3ccccc3)cc2/C=C\c2cscn2)ccc1OCc1nc(-c2ccco2)oc1C [Example 111 (Z form), 2-(2-furyl)-4-({2-methoxy-4-[({1-phenyl-4-[(Z)-2-(1,3-thiazol-4-yl)ethenyl]-1H-pyrazol-3-yl}oxy)methyl]phenoxy}methyl)-5-methyl-1,3-oxazole] |
| 137 to 138 °C | COc1cc(COc2nn(-c3ccccc3)cc2/C=C/c2cnco2)ccc1OCc1nc(-c2ccco2)oc1C [Example 114, 2-(2-furyl)-4-({2-methoxy-4-[({4-[(E)-2-(1,3-oxazol-5-yl)ethenyl]-1-phenyl-1H-pyrazol-3-yl}oxy)methyl]phenoxy}methyl)-5-methyl-1,3-oxazole] |
| 102 to 103 °C | CCCc1nnc(Cc2cn(-c3ccccc3)nc2OCc2ccc(OCc3nc(-c4ccco4)oc3C)c(OC)c2)o1 [Example 120, 2-({3-[(4-{[2-(2-furyl)-5-methyl-1,3-oxazol-4-yl]methoxy}-3-methoxybenzyl)oxy]-1-phenyl-1H-pyrazol-4-yl}methyl)-5-propyl-1,3,4-oxadiazole] |
| 85 to 86 °C | CCCc1nnc(CCc2cc(OCc3ccc(OCc4nc(-c5ccccc5)oc4C)c(OC)c3)nn2-c2ccccc2)o1 [Example 123, 2-{2-[3-({3-methoxy-4-[(5-methyl-2-phenyl-1,3-oxazol-4-yl)methoxy]benzyl}oxy)-1-phenyl-1H-pyrazol-5-yl]ethyl}-5-propyl-1,3,4-oxadiazole] |
| 192 to 193 °C | CCCc1noc(/C=C/c2cn(-c3ccccc3)nc2OCc2ccc(OCc3nc(-c4ccco4)oc3C)c(OC)c2)n1 [Example 124, 5-((E)-2-{3-[(4-{[2-(2-furyl)-5-methyl-1,3-oxazol-4-yl]methoxy}-3-methoxybenzyl)oxy]-1-phenyl-1H-pyrazol-4-yl}ethenyl)-3-propyl-1,2,4-oxadiazole] |
